Source: patent publication US9890175B2, “Taxane compound, and preparation method and use thereof” (JIANGSU TASLY DIYI PHARMACEUTICAL CO., LTD., priority 2013, dated 2018)
Where two headings read alike, the source gives them in different places.

Key:
LNCaP prostate cancer = assay: MTT proliferation inhibition, LNCaP; format: cell-based; settings: Homo sapiens, read-out: Proliferation inhibition rate, LNCaP Prostate cancer
Source text: (§1) 1. Cytotoxicity Assay Using Human Tumor Cell Lines
(§2) Paclitaxel was used as the positive drug.

LN-18 = assay: MTT proliferation inhibition, LN-18; format: cell-based; settings: Homo sapiens, LN-18, read-out: Proliferation inhibition rate, LN-18 Gastric canser
Source text: as §1, §2

A375 melanoma = assay: MTT proliferation inhibition, A375; format: cell-based; settings: Homo sapiens, A-375, read-out: Proliferation inhibition rate, A375 Melanoma
Source text: as §1, §2

A2780 ovarian cancer = assay: MTT proliferation inhibition, A2780; format: cell-based; settings: Homo sapiens, A2780, read-out: Proliferation inhibition rate, A2780 Ovarian cancer
Source text: as §1, §2

[1] = Caco-2 cell monolayer membrane transport assay (Papp and recovery); format: in vitro ADME; settings: human, Caco-2, Caco-2, A-B
Source text: Caco-2 Cell Monolayer Membrane Transport Assay
Human-derived colorectal adenocarcinoma cell line Caco-2 cell monolayer model was used to study the bidirectional transport of the target compounds from the apical (AP) side to the basolateral (BL) side and from BL side to AP side. HPLC was used for quantitative analysis to calculate transport parameters, apparent permeability coefficient (Papp) and the efflux ratio.

Hela cervical cancer = assay: MTT proliferation inhibition, HeLa; format: cell-based; settings: Homo sapiens, read-out: Proliferation inhibition rate, HeLa Uterin cancer
Source text: as §1, §2

[2] = test system: A549 non-small cell lung cancer; assay: MTT proliferation inhibition, A549; format: cell-based; settings: Homo sapiens, A549, read-out: Proliferation inhibition rate, A549 Non-small cell lung cancer
Source text: as §1, §2

[3] = test system: MCF-7 breast cancer cells; assay: MTT proliferation inhibition, MCF-7; format: cell-based; settings: Homo sapiens, MCF7, read-out: Proliferation inhibition rate, MCF-7 Breast cancer
Source text: as §1, §2

HCT 116 colon cancer = assay: MTT proliferation inhibition, HCT 116; format: cell-based; settings: Homo sapiens, HCT-116, read-out: Proliferation inhibition rate, HCT 116 Colon cancer
Source text: as §1, §2

Du145 prostate cancer = assay: MTT proliferation inhibition, Du145; format: cell-based; settings: Homo sapiens, DU-145, read-out: Proliferation inhibition rate, DU145 Prostate cancer
Source text: as §1, §2

B16 melanoma = assay: MTT proliferation inhibition, B16; format: cell-based; settings: B16, read-out: Proliferation inhibition rate, B16 Melanoma
Source text: as §1, §2

BGC-823 gastric cancer = assay: MTT proliferation inhibition, BGC-823; format: cell-based; settings: Homo sapiens, BGC-823, read-out: Proliferation inhibition rate, BGC-823 Gastric cancer
Source text: as §1, §2

[4] = test system: MDA-MB-436 breast cancer cells; assay: MTT proliferation inhibition, MDA-MB-436; format: cell-based; settings: Homo sapiens, MDA-MB-436, read-out: Proliferation inhibition rate, MDA-MB-436 Breast cancer
Source text: as §1, §2

[5] = test system: NCI-H460 non-small cell lung cancer; assay: MTT proliferation inhibition, NCI-H460; format: cell-based; settings: Homo sapiens, NCI-H460, read-out: Proliferation inhibition rate, NCI-H460 Non-small cell lung cancer
Source text: as §1, §2

HT-29 colon cancer = assay: MTT proliferation inhibition, HT-29; format: cell-based; settings: Homo sapiens, HT-29, read-out: Proliferation inhibition rate, HT29 Colon cancer
Source text: as §1, §2

[6] = test system: breast cancer cell line MCF-7; assay: IC50 on breast cancer cell line MCF-7; format: cell-based; settings: Homo sapiens, MCF7, 72 h, read-out: MCF-7 (IC50, nM)
Protocol: From the activity evaluation data of the above-mentioned preliminary screen, it can be seen that the series of taxanes derivatives synthesized in the present invention have activity. Afterward, the compounds are investigated to examine their IC50 values on breast cancer cell line MCF-7. […] Experiments for each compound were independently repeated for three times and multiple holes were used in each experiment. The exposure time of drugs was 72 hours.

HL-60 leukemia = assay: MTT proliferation inhibition, HL-60; format: cell-based; settings: Homo sapiens, HL-60, read-out: Proliferation inhibition rate, HL60 Leukemia
Source text: as §1, §2

K562 leukemia = assay: MTT proliferation inhibition, K562; format: cell-based; settings: Homo sapiens, K562, read-out: Proliferation inhibition rate, K562 Leukemia
Source text: as §1, §2

[7] = Mean, read-out: Recovery rate in mass, Mean
[8] = Sample-01, read-out: Papp A-B, Sample-01
[9] = Sample-01, read-out: Recovery rate in mass, Sample-01
[10] = Sample-02, read-out: Papp A-B, Sample-02
[11] = Sample-02, read-out: Recovery rate in mass, Sample-02

Row | SMILES | inhibition at 1 µM (LNCaP prostate cancer) [%] | inhibition at 1 µM (LN-18) [%] | inhibition at 1 µM (A375 melanoma) [%] | inhibition at 1 µM (A2780 ovarian cancer) [%] | recovery [1, 7] [%] | Papp A→B [1, 8] [×10⁻⁶ cm/s] | recovery [1, 9] [%] | Papp A→B [1, 10] [×10⁻⁶ cm/s] | recovery [1, 11] [%] | inhibition at 1 µM (Hela cervical cancer) [%] | inhibition at 1 µM [2] [%] | inhibition at 1 µM [3] [%] | inhibition at 1 µM (HCT 116 colon cancer) [%] | inhibition at 1 µM (Du145 prostate cancer) [%] | inhibition at 1 µM (B16 melanoma) [%] | inhibition at 1 µM (BGC-823 gastric cancer) [%] | inhibition at 1 µM [4] [%] | inhibition at 1 µM [5] [%] | inhibition at 1 µM (HT-29 colon cancer) [%] | IC50 [6] [nM] | further results
1 | CO[C@H]1C(=O)[C@@]2(C)[C@H]([C@H](OC(=O)c3ccccc3)[C@]34OC(=O)O[C@H]3[C@H](OC(=O)[C@H](O)[C@@H](NC(=O)OC(C)(C)C)c3ccccc3)C(C)=C1C4(C)C)[C@]1(OC(C)=O)CO[C@@H]1C[C@@H]2O [PCMI-06] | 83.6 | 94.6 | 94.4 | 96 | 112 | 1.31 | 128 | 1.13 | 96.6 | 99.9 | 75.5 | 86.3 | 67.1 | 89.1 | 80.7 | 93.6 | 77.8 | 84.7 | 87.3 | 16.24 ± 0.08 | Papp A→B ([1]; Mean, read-out: Papp A-B, Mean): 1.22 ×10⁻⁶ cm/s; inhibition at 1 µM (HL-60 leukemia): 97.7%; inhibition at 1 µM (K562 leukemia): 93.3%
2 | CO[C@H]1C[C@H]2OC[C@@]2(OC(C)=O)[C@H]2[C@H](OC(=O)c3ccccc3)[C@]34OC(=O)O[C@H]3[C@H](OC(=O)[C@H](O)[C@H](CC(C)C)NC(=O)OC(C)(C)C)C(C)=C([C@@H](OC(=O)N(C)C)C(=O)[C@]12C)C4(C)C [PCMI-10] | 85.9 | 93.7 | 94.2 | 95 | 37.3 | 1.25 | 34 | 0.89 | 40.5 | 99.9 | 70.5 | 85.9 | 65.6 | 88 | 71.4 | 91.2 | 77.3 | 81 | 86.2 | 6.44 ± 0.18 | inhibition at 1 µM (HL-60 leukemia): 97.5%; inhibition at 1 µM (K562 leukemia): 90.6%
3 | CO[C@H]1C[C@H]2OC[C@@]2(OC(C)=O)[C@H]2[C@H](OC(=O)c3ccccc3)[C@]34OC(=O)O[C@H]3[C@H](OC(=O)[C@H](O)[C@@H](NC(=O)N(C)C)c3ccccc3)C(C)=C([C@@H](OC(=O)N(C)C)C(=O)[C@]12C)C4(C)C [PCMI-11] | 86.5 | 92.9 | 92.4 | 94.6 | 79.9 | 1.24 | 79.7 | 1.02 | 80.2 | 99.6 | 72.3 | 82.4 | 64.3 | 87.2 | 72.6 | 90.6 | 79 | 82.2 | 85.9 | 4.25 ± 0.06 | Papp A→B ([1]; Mean, read-out: Papp A-B, Mean): 1.13 ×10⁻⁶ cm/s; inhibition at 1 µM (HL-60 leukemia): 97.9%; inhibition at 1 µM (K562 leukemia): 92.1%
4 | COC(=O)O[C@H]1C(=O)[C@]2(C)[C@@H](OC)C[C@H]3OC[C@@]3(OC(C)=O)[C@H]2[C@H](OC(=O)c2ccccc2)[C@]23OC(=O)O[C@H]2[C@H](OC(=O)[C@H](O)[C@@H](NC(=O)OC(C)(C)C)c2ccccc2)C(C)=C1C3(C)C [PCMI-12] | 86.3 | 93.4 | 92 | 94.3 | 27.8 to 39.5 | < 1.36 | 27.8 to 29.1 | < 1.43 | 38.2 to 39.5 | 100 | 73.6 | 81.8 | 66.6 | 86.7 | 75.9 | 93 | 81.4 | 82.3 | 85.4 | 3.24 ± 0.04 | Papp A→B ([1]; Mean, read-out: Papp A-B, Mean): < 1.43 ×10⁻⁶ cm/s; inhibition at 1 µM (HL-60 leukemia): 97.2%; inhibition at 1 µM (K562 leukemia): 91.2%
5 | CCSC(=O)O[C@H]1C(=O)[C@]2(C)[C@@H](OC)C[C@H]3OC[C@@]3(OC(C)=O)[C@H]2[C@H](OC(=O)c2ccccc2)[C@]23OC(=O)O[C@H]2[C@H](OC(=O)[C@H](O)[C@@H](NC(=O)OC(C)(C)C)c2ccccc2)C(C)=C1C3(C)C [PCMI-13] | 86.3 | 93.8 | 93.1 | 95.9 | 40.8 to 43.1 | < 1.3 | 40.8 to 42 | < 1.67 | 41.5 to 43.1 | 100 | 77.1 | 84.7 | 68.5 | 90.7 | 81.2 | 94 | 81 | 86.2 | 87.4 | 3.89 ± 0.12 | Papp A→B ([1]; Mean, read-out: Papp A-B, Mean): < 1.67 ×10⁻⁶ cm/s; inhibition at 1 µM (HL-60 leukemia): 97.5%; inhibition at 1 µM (K562 leukemia): 94.2%
